# Measured values taken from patent US20140113876A1, “BIOMARKERS FOR ASSESSING TREATMENT OF SIALIC ACID DEFICIENCY DISEASES AND CONDITIONS” (ULTRAGENYX PHARMACEUTICAL INC., priority 2012, published 2014).
# Tested on: HIBM patients
# Test: Phase 2 clinical trial: change in serum biomarker levels between week 0 and week 24 per dosage group (Human Discovery MAP250+ v2.0 immunoassay)
# Type: in vivo
# Protocol: Forty-seven (47) HIBM patient serum samples collected at week 24 from phase 2 study were tested using the Human Discovery MAP250+ v2.0 quantitative immunoassay system developed by Myriad RBM. The results were compared to the serum samples of the same 47 HIBM patients collected at week 0 (baseline) which were conducted earlier with the same immunoassay system.
# Patients were unblinded and the results were organized into the 3 assigned dosage groups, placebo (n=14), 3 g/day (n=17) and 6 g/day (n=14). The major focus of the analysis was 1) to assess changes (delta, A) in levels of analytes between baseline and week 24 in each dosage group, 2) whether the changes correlate to dosage levels.
# Analytes were excluded from analysis if […] of the HIBM patient samples were below least detectable dose (LDD). Within each dosage group, individual values with >5× difference to the mean of the dosage group were considered as outliers and thus removed from analysis.
# [1] = placebo, 3 g/day, 6 g/day, week 0 to week 24, FIG. 4
structure (smiles),measurement,setting,value
"CC(=O)N[C@H]1[C@H]([C@H](O)[C@H](O)CO)OC(O)(C(=O)O)C[C@@H]1O (some centres unmarked) [Sialic Acid, 5-N-acetylneuraminic acid]","serum level of LAP TGF-b1, change towards normal level compared to placebo","6 g/day dosage group, week 0 to week 24, FIG. 2",declined at a faster rate
same,"serum level of NCAM, change towards normal level compared to placebo","6 g/day dosage group, week 0 to week 24, FIG. 3",increased at a faster rate
same,change in the levels of the eleven analytes of Table 14 compared to the placebo group,"6 g/day group, week 24",more favorable change
same,"slope of delta from placebo to higher dosage group, analytes with baseline levels higher than normal controls (PAI-1, LGL, myoglobin, ENA-78, TGfb1, M-CSF1, MMP-9, CgA)",[1],downward trend
same,"slope of delta from placebo to higher dosage group, analytes with baseline levels lower than normal controls (NCAM, ErbB3)",[1],upward trend
